Results reported in publication PMC9483557, “Reisomerization of retinal represents a molecular switch mediating Na^+ uptake and release by a bacterial sodium-pumping rhodopsin” (The Journal of Biological Chemistry, 2022).

Target: T1, IaNaR (Indibacter alkaliphilus, UniProt S2D3K4)
T1 construct: gene A33Q_3728; C-terminal His tag, E. coli BL21, vector pKA001, DDM-solubilised, Ni-NTA purified, reconstituted in Egg-PC liposomes
T1 sequence (S2D3K4 1-279): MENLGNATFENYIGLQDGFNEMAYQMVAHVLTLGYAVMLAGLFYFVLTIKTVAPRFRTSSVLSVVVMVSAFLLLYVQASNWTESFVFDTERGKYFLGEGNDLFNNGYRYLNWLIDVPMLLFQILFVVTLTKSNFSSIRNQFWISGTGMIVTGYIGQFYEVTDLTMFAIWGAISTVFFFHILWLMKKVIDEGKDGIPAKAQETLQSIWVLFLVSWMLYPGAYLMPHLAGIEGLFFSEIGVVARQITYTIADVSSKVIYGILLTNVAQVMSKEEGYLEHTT
Test: time-resolved cryo-Raman ([…] nm preresonance) and absorption spectroscopy
Assay type: binding
Conditions: covalent; protonated Schiff base to helix G lysine; dark state all-trans; humidified film, 268 K, pH 8.0, NaCl

CC1=C(/C=C/C(C)=C/C=C/C(C)=C/C=O)C(C)(C)CCC1 [retinal]
time-resolved cryo-Raman (785 nm preresonance) and absorption spectroscopy: the vibrational modes of the RSB chromophore were selectively observed due to the preresonance enhancement
